Structures can show the parent of a compound that is named as a salt. Marks after values point to notes of the source that are not given here.
How the values were obtained:
[1] = 1-week stability studies (XRPD, HPLC); format: physicochemical; conditions: 1 week; ambient temperature, light and humidity; 40° C./75% RH; 80° C.
Description: The isolated 1-methyl-1,4,5,10-tetrahydropyrazolo[3,4-b][1,5]benzodiazepine freebase was characterized by TG/DTA, DSC, DVS with post-DVS, XRPD, HPLC, ^1H NMR and LC-MS, as per the methods detailed above. The 1-methyl-1,4,5,10-tetrahydropyrazolo[3,4-b][1,5]benzodiazepine freebase was stored at 40° C./75% relative humidity (RH) for 1 week to determine the stability of the material at increased RH and to identify potential hydrate formation.
One-week stability studies were conducted on the freebase (example 1), phosphate form 1 (example 3) and L-tartrate form 1 (example 5) salts using the following procedures: • Approximately 20 mg of each form was weighed into 3×2 mL glass vials. • One vial for each form was stored under the following conditions for 1-week: • 1. Ambient temperature, light and humidity (unsealed vial) • 2. 40° C./75% RH (unsealed vial) • 3. 80° C. (sealed vial) • The samples were collected after 1-week and observations were made. • The solids were analyzed by XRPD and HPLC.

[2] = Thermodynamic solubility in PBS buffer pH 7.4; format: physicochemical
Description: The thermodynamic solubility of freebase (example 1), phosphate form 1 (example 3) and L-tartrate form 1 (example 5) were assessed in phosphate buffered saline (PBS) buffer at pH 7.4 according to the following procedure: • Approximately 30 mg of each form was weighed into 2 mL glass vials. • 100 μL of buffer solution was added to each vial until partial dissolution was observed. • The observed slurries were agitated at ambient temperature for about 24 hours. • The samples were collected, and observations were recorded. • The samples were filtered via centrifugation. • The pH of the mother liquors were recorded. • The concentration of the mother liquors were recorded by HPLC.

[3] = Oral pharmacokinetics in rats; format: in vivo; conditions: male Sprague Dawley rats; for Plasma AUC0-inf/Dose / Plasma Cmax/Dose: dose-normalised; for Plasma AUC0-inf/Dose / Plasma Cmax/Dose / % Dose in urine: listed as Phosphate salt; for Apparent t1/2 / BA % / Plasma AUC0-inf / Plasma Cmax / Tmax / % Dose in urine: 5 mg/kg target dose (freebase equivalent), 5 mg/kg; for Apparent t1/2 / BA % / Plasma AUC0-inf / Plasma Cmax / Tmax: mean ± SD, n = 3, listed as Phosphate salt; for % Dose in urine: urine up to 24 h
Description: N=3 rats were run in each of the four conditions: • (1) Di-HCL salt in saline • (2) Di-HCL salt in methocel • (3) Phosphate form 1 in saline • (4) Phosphate form 1 in methocel
On the day of dosing the solid compounds were dissolved in either Saline (0.9%) or 0.5% hydroxypropyl methylcellulose (Methocel E3 Premium LV) in Milli-Q water. The formulations were then thoroughly vortexed to produce colourless solutions.
Overnight-fasted rats with adlibitum access to water were administered their dose of the various forms of the compound of the invention via oral gavage (PO) at a dose volume of 3 ml/kg and a dose of 5 mg/kg freebase equivalent. Food access was re-instated 4 hours (h) post-dose. Samples of arterial blood were collected up to 24 h post-dose. After collection, samples were centrifuged, plasma was removed and stored frozen at −80° C. before being analysed by LC-MS. Urine samples were collected at pre, 0-4 h, 4-7 h and 7-24 h post-dose and were analysed by LC-MS following extraction.

changes in form by XRPD [1]: no changes in form | solubility ([2]; PBS buffer at pH 7.4, ambient temperature, about 24 hours, HPLC): 7400 µg/mL | pH (t = 24 h) ([2]; mother liquor of PBS pH 7.4 slurry): 3.48 | Plasma AUC0-inf/Dose ([3]; Methocel): 0.85 ± 0.18 (μg*h/mL)/(mg/kg) | Plasma Cmax/Dose ([3]; Methocel): 0.41 ± 0.05 (μg/mL)/(mg/kg) | Plasma AUC0-inf/Dose ([3]; Saline): 1.02 ± 0.36 (μg*h/mL)/(mg/kg) | Plasma Cmax/Dose ([3]; Saline): 0.43 ± 0.03 (μg/mL)/(mg/kg) | Apparent t1/2 ([3]; Methocel): 36 ± 1.2 min | BA % ([3]; Methocel): 93.2 ± 20^b % | Plasma AUC0-inf ([3]; Methocel): 4160 ± 880 ng·h/mL | Plasma Cmax ([3]; Methocel): 2010 ± 250 ng/mL | Tmax ([3]; Methocel): 15 ± 0 min | % Dose in urine ([3]; Methocel): 0.222 ± 0.093% | Apparent t1/2 ([3]; Saline): 48.6 ± 12 min | BA % ([3]; Saline): 111 ± 40^b % | Plasma AUC0-inf ([3]; Saline): 4950 ± 1750 ng·h/mL | Plasma Cmax ([3]; Saline): 2090 ± 140 ng/mL | Tmax ([3]; Saline): 30 ± 24 min | % Dose in urine ([3]; Saline): 0.395^d % | exposure profile compared with dihydrochloride salt form ([3]; saline or methocel vehicle): same exposure profile
SMILES: Cn1ncc2c1Nc1ccccc1NC2 [Phosphate form 1, phosphoric acid addition salt of 1-methyl-1,4,5,10-tetrahydropyrazolo[3,4-b][1,5]benzodiazepine]
changes in purity by HPLC [1]: did not identify any significant changes in purity

— US20240287074A1, “SALTS AND CRYSTALS” (Kinoxis Therapeutics Pty Ltd, priority 2020, published 2024)
